A value given as a limit tells only on which side of the number the result lay.

Experimental findings from ChEMBL document CHEMBL2202969, “Discovery and evolution of phenoxypiperidine hydroxyamide dual CCR3/H₁ antagonists. Part I” (Bioorg Med Chem Lett, 2012) are described below.

T3 sequence (P35367 whole entry): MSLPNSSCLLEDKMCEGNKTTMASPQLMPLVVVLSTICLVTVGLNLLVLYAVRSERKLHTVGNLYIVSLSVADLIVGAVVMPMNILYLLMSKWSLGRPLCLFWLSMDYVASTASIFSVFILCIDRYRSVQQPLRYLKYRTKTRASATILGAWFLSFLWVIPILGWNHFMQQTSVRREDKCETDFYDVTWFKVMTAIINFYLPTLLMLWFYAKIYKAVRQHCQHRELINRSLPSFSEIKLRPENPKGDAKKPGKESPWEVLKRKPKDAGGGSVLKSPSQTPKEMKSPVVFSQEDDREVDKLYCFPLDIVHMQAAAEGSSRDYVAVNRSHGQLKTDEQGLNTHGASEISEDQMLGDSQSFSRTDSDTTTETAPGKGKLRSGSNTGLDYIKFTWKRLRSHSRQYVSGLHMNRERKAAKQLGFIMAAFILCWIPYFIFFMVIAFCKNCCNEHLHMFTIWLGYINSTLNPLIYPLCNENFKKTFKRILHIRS

The first data set has as its target T1, C-C chemokine receptor type 3 (Homo sapiens) (UniProt P51677).
T1 sequence (whole entry): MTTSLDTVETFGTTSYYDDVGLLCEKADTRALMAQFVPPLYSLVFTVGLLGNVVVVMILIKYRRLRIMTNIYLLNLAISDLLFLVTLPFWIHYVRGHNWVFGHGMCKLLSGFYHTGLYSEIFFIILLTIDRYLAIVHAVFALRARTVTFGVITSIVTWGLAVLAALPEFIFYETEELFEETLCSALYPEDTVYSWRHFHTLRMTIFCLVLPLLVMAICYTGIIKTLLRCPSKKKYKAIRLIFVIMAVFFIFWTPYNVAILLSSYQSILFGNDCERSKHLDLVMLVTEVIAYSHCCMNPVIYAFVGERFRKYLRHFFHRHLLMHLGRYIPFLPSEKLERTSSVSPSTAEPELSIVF
Nature of the data set: Displacement of [3H]-4-(2,4-dichloro-3-methylphenoxy)-l'-[4- (methylsulfonyl)benzoyl]-l,4'-bipiperidine from human recombinant CCR3 expressed in CHOK1 cells at 1 uM after 2 hrs by scintillation counting analysis. Type of data set: cell-based. Conditions: CHO-K1.
Consider `N#Cc1ccc(OC[C@@H](O)CNC2CCN(Cc3ccc(Cl)c(Cl)c3)CC2)cc1`, for which the inhibition is more than 70%.
Still for that read-out and setting: as for `N#Cc1cccc(S(=O)(=O)NC[C@@H](O)CN2CCC(Oc3ccc(Cl)c(Cl)c3)CC2)c1`, the figure is more than 70%; as for `N#Cc1cccc(OC[C@@H](O)CN2CCC(Oc3ccc(Cl)c(Cl)c3)CC2)c1`, more than 70%.
The same measure, in the same setting: as for `O=C(NC[C@@H](O)CN1CCC(Oc2ccc(Cl)c(Cl)c2)CC1)c1n[nH]c(=O)c2ccccc12`, the figure is more than 70%.
Still for that read-out and setting: as for `O[C@@H](CNC1CCN(Cc2ccc(Cl)c(Cl)c2)CC1)COc1ccc2ncsc2c1`, the figure is more than 70%.
Take `O=C(NC[C@@H](O)CN1CCC(Oc2ccc(Cl)c(Cl)c2)CC1)c1c[nH]c2ccccc12`: the inhibition was more than 70%.
Same read-out and setting: the value for `O=C(NC[C@@H](O)CN1CCC(Oc2ccc(Cl)c(Cl)c2)CC1)c1c[nH]c(=O)c2ccccc12` was more than 70%; that for `COc1cccc(SC[C@@H](O)CN2CCC(Oc3ccc(Cl)c(Cl)c3)CC2)c1` was more than 70%.
Same read-out and setting: the value for `O=C(NC[C@@H](O)CN1CCC(Oc2ccc(Cl)c(Cl)c2)CC1)c1cc(=O)[nH]c2ccccc12` was more than 70%; that for `N#Cc1cccc(OC[C@@H](O)CNC2CCN(Cc3ccc(Cl)c(Cl)c3)CC2)c1` was more than 70%; that for `O=C(NC[C@@H](O)CN1CCC(Oc2ccc(Cl)c(Cl)c2)CC1)c1cnnc2ccccc12` was more than 70%.

The target in the next data set is T2, C-C chemokine receptor type 1 (Homo sapiens, UniProt P32246).
T2 sequence (P32246 whole entry): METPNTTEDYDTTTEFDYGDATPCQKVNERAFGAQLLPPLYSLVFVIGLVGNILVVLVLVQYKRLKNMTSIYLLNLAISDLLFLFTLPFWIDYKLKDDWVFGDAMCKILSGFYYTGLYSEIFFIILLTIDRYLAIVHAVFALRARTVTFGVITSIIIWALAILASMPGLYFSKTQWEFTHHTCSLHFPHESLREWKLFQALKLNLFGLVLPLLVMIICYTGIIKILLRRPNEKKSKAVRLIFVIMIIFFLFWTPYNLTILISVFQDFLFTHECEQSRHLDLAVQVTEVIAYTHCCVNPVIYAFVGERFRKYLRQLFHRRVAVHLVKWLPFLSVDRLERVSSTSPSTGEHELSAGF
Nature of the data set: Antagonist activity at CCR1. It counts as functional.
Conditions: not given
For the compound `O=C(Nc1ccccc1OCC(O)CN1CCC(Oc2ccc(Cl)c(Cl)c2)CC1)C1CCC1` (stereo not drawn), the Ki was 15.8 nM.
As for `O=C(NC[C@@H](O)CN1CCC(Oc2ccc(Cl)c(Cl)c2)CC1)c1c[nH]c(=O)c2ccccc12`, the IC50 is 5010 nM.

System in another data set: not listed separately
Nature of the data set: in vitro. Conditions: rat, hepatocytes.
As for `N#Cc1cccc(OC[C@@H](O)CNC2CCN(Cc3ccc(Cl)c(Cl)c3)CC2)c1`, the hepatocyte CLint was 7 µL/min/1e6 cells.

The next data set addresses T3, Histamine H1 receptor (Homo sapiens, UniProt P35367). The experiment in a line: Displacement of [3H]-pyrilamine from human histamine H1 receptor expressed in recombinant CHOK1 cells after 1 hr. Type of data set: cell-based, CHO-K1.
Conditions: not given
Background: Displacement assays read how much labelled ligand stays bound in the presence of the test substance.
On to `N#Cc1ccc(OC[C@@H](O)CNC2CCN(Cc3ccc(Cl)c(Cl)c3)CC2)cc1`, for which the Ki is 501 nM.
With `N#Cc1cccc(OC[C@@H](O)CN2CCC(Oc3ccc(Cl)c(Cl)c3)CC2)c1`, the Ki was 3.16 nM.
On the same count and under the same terms, the value for `O[C@@H](CNC1CCN(Cc2ccc(Cl)c(Cl)c2)CC1)COc1ccc2ncsc2c1` was 316 nM; that for `O=C(NC[C@@H](O)CN1CCC(Oc2ccc(Cl)c(Cl)c2)CC1)c1c[nH]c2ccccc12` was 31.6 nM.
Turning to `COc1cccc(SC[C@@H](O)CN2CCC(Oc3ccc(Cl)c(Cl)c3)CC2)c1`, the Ki was 20 nM.
Still for that read-out and setting: the value for `O=C(NC[C@@H](O)CN1CCC(Oc2ccc(Cl)c(Cl)c2)CC1)c1cc(=O)[nH]c2ccccc12` was 3.98 nM.
Still for that read-out and setting: the value for `N#Cc1cccc(OC[C@@H](O)CNC2CCN(Cc3ccc(Cl)c(Cl)c3)CC2)c1` was 501 nM; that for `O=C(NC[C@@H](O)CN1CCC(Oc2ccc(Cl)c(Cl)c2)CC1)c1cnnc2ccccc12` was 12.6 nM.

A further data set has as its target C-C chemokine receptor type 3 (Homo sapiens) (UniProt P51677). The experiment in a line: Displacement of radioligand from human CCR3 expressed in recombinant CHOK1 cells at 1 uM after 1 hr. The note with it: CHO-K1.
Consider `N#Cc1ccc(OC[C@@H](O)CNC2CCN(Cc3ccc(Cl)c(Cl)c3)CC2)cc1`, for which the inhibition is more than 70%.
For the compound `O[C@@H](CNC1CCN(Cc2ccc(Cl)c(Cl)c2)CC1)COc1ccc2ncsc2c1`, the inhibition is more than 70%.
The same measure, in the same setting: the value for `COc1cccc(SC[C@@H](O)CN2CCC(Oc3ccc(Cl)c(Cl)c3)CC2)c1` was more than 70%; that for `O=C(NC[C@@H](O)CN1CCC(Oc2ccc(Cl)c(Cl)c2)CC1)c1cc(=O)[nH]c2ccccc12` was more than 70%.
On the same count and under the same terms, as for `N#Cc1cccc(OC[C@@H](O)CNC2CCN(Cc3ccc(Cl)c(Cl)c3)CC2)c1`, the figure is more than 70%.
For `O=C(NC[C@@H](O)CN1CCC(Oc2ccc(Cl)c(Cl)c2)CC1)c1cnnc2ccccc12`, the inhibition is more than 70%.

System in another data set: not listed separately
The experiment in a line: in vitro. Conditions: rat, liver microsomes. A general note: Liver microsomes are a subcellular fraction often used to study metabolism.
With `N#Cc1cccc(S(=O)(=O)NC[C@@H](O)CN2CCC(Oc3ccc(Cl)c(Cl)c3)CC2)c1`, the microsomal CLint stood at 13 µL/min/mg.
Regarding `N#Cc1cccc(OC[C@@H](O)CN2CCC(Oc3ccc(Cl)c(Cl)c3)CC2)c1`, the microsomal CLint is 23 µL/min/mg.
On the same count and under the same terms, as for `COc1cccc(SC[C@@H](O)CN2CCC(Oc3ccc(Cl)c(Cl)c3)CC2)c1`, the figure is 49 µL/min/mg; as for `N#Cc1cccc(OC[C@@H](O)CNC2CCN(Cc3ccc(Cl)c(Cl)c3)CC2)c1`, 23 µL/min/mg.

The target of a further data set is T4, C-C chemokine receptor type 3 (Homo sapiens, UniProt P51677).
T4 sequence (P51677 whole entry): T1 sequence (whole entry)
Nature of the data set: Displacement of [3H]-4-(2,4-dichloro-3-methylphenoxy)-l'-[4- (methylsulfonyl)benzoyl]-l,4'-bipiperidine from human recombinant CCR3 expressed in CHOK1 cells after 2 hrs by scintillation counting analysis.
Conditions: not given
It counts as cell-based, CHO-K1.
Take `O=C(Nc1ccccc1OCC(O)CN1CCC(Oc2ccc(Cl)c(Cl)c2)CC1)C1CCC1` (stereo not drawn): the Ki is 100 nM.
Still for that read-out and setting: as for `N#Cc1ccc(OC[C@@H](O)CNC2CCN(Cc3ccc(Cl)c(Cl)c3)CC2)cc1`, the figure is 126 nM.
On to `N#Cc1cccc(OC[C@@H](O)CN2CCC(Oc3ccc(Cl)c(Cl)c3)CC2)c1`, for which the Ki is 251 nM.
As for `O=C(NC[C@@H](O)CN1CCC(Oc2ccc(Cl)c(Cl)c2)CC1)c1n[nH]c(=O)c2ccccc12`, the Ki is 1.58 nM.
With `O[C@@H](CNC1CCN(Cc2ccc(Cl)c(Cl)c2)CC1)COc1ccc2ncsc2c1`, the Ki is 158 nM.
On the same count and under the same terms, the value for `O=C(NC[C@@H](O)CN1CCC(Oc2ccc(Cl)c(Cl)c2)CC1)c1c[nH]c2ccccc12` was 2.51 nM.
In the case of `COc1cccc(SC[C@@H](O)CN2CCC(Oc3ccc(Cl)c(Cl)c3)CC2)c1`, the Ki is 126 nM.
Same read-out and setting: as for `O=C(NC[C@@H](O)CN1CCC(Oc2ccc(Cl)c(Cl)c2)CC1)c1cc(=O)[nH]c2ccccc12`, the figure is 7.94 nM; as for `N#Cc1cccc(OC[C@@H](O)CNC2CCN(Cc3ccc(Cl)c(Cl)c3)CC2)c1`, 316 nM.
Still for that read-out and setting: the value for `O=C(NC[C@@H](O)CN1CCC(Oc2ccc(Cl)c(Cl)c2)CC1)c1cnnc2ccccc12` was 12.6 nM.

System in a further data set: not listed separately
The experiment in a line: physchem. The note with it: octanol/water.
In the case of `N#Cc1cccc(OC[C@@H](O)CN2CCC(Oc3ccc(Cl)c(Cl)c3)CC2)c1`, the logD is more than 4.5.
The same measure, in the same setting: the value for `O=C(NC[C@@H](O)CN1CCC(Oc2ccc(Cl)c(Cl)c2)CC1)c1n[nH]c(=O)c2ccccc12` was 3.7.
The same measure, in the same setting: the value for `O=C(NC[C@@H](O)CN1CCC(Oc2ccc(Cl)c(Cl)c2)CC1)c1c[nH]c2ccccc12` was 3.9.
On the same count and under the same terms, the value for `COc1cccc(SC[C@@H](O)CN2CCC(Oc3ccc(Cl)c(Cl)c3)CC2)c1` was more than 4.5; that for `O=C(NC[C@@H](O)CN1CCC(Oc2ccc(Cl)c(Cl)c2)CC1)c1cc(=O)[nH]c2ccccc12` was 3.5.
For `N#Cc1cccc(OC[C@@H](O)CNC2CCN(Cc3ccc(Cl)c(Cl)c3)CC2)c1`, the logD came out at 3.1.
`O=C(NC[C@@H](O)CN1CCC(Oc2ccc(Cl)c(Cl)c2)CC1)c1cnnc2ccccc12` returned a logD of 3.3.

For another data set, the target named is Voltage-gated inwardly rectifying potassium channel KCNH2 (Homo sapiens, UniProt Q12809).
Sequence of Voltage-gated inwardly rectifying potassium channel KCNH2 (Q12809 whole entry): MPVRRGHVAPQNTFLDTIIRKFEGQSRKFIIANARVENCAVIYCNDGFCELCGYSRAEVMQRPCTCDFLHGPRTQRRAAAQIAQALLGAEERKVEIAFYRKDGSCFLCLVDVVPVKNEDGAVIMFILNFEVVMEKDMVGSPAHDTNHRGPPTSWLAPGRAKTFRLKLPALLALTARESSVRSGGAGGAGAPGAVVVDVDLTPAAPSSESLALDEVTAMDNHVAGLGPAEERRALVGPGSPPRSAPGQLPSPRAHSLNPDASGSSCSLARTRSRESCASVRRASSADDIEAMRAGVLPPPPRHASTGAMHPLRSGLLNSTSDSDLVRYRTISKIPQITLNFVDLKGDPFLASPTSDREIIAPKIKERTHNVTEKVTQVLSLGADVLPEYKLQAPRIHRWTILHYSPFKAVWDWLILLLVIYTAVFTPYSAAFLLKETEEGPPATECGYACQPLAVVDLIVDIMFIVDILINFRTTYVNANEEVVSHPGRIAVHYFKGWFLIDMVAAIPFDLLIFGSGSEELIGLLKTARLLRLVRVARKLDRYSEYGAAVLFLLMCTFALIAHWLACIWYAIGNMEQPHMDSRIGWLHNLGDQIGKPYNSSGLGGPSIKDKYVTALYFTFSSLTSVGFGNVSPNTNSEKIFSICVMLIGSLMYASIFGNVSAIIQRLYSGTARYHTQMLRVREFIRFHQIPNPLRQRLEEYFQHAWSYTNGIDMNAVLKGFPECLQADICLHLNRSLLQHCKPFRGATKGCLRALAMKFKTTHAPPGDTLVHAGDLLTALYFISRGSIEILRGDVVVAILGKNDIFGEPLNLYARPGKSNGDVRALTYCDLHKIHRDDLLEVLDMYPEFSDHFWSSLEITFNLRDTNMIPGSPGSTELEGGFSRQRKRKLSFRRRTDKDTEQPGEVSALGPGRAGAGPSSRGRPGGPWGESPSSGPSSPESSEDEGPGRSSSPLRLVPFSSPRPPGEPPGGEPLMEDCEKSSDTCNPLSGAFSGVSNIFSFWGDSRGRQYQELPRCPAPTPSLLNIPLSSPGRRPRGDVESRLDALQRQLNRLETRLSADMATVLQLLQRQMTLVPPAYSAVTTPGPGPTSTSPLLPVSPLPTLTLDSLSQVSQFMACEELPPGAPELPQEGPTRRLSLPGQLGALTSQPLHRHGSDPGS
Experiment: not given
Conditions: not given
With `O=C(NC[C@@H](O)CN1CCC(Oc2ccc(Cl)c(Cl)c2)CC1)c1c[nH]c2ccccc12`, the IC50 was 2000 nM. This lies in the single-digit micromolar range.
On the same count and under the same terms, as for `O=C(NC[C@@H](O)CN1CCC(Oc2ccc(Cl)c(Cl)c2)CC1)c1cc(=O)[nH]c2ccccc12`, the figure is more than 10000 nM; as for `O=C(NC[C@@H](O)CN1CCC(Oc2ccc(Cl)c(Cl)c2)CC1)c1cnnc2ccccc12`, 6310 nM.

System in another data set: not listed separately
The experiment in a line: in vitro. Conditions: human, liver microsomes.
In turn, `N#Cc1ccc(OC[C@@H](O)CNC2CCN(Cc3ccc(Cl)c(Cl)c3)CC2)cc1` registered a microsomal CLint of less than 3 µL/min/mg.
The same measure, in the same setting: the value for `N#Cc1cccc(S(=O)(=O)NC[C@@H](O)CN2CCC(Oc3ccc(Cl)c(Cl)c3)CC2)c1` was 7 µL/min/mg; that for `N#Cc1cccc(OC[C@@H](O)CN2CCC(Oc3ccc(Cl)c(Cl)c3)CC2)c1` was less than 3 µL/min/mg; that for `O[C@@H](CNC1CCN(Cc2ccc(Cl)c(Cl)c2)CC1)COc1ccc2ncsc2c1` was less than 3 µL/min/mg.
The same measure, in the same setting: the value for `COc1cccc(SC[C@@H](O)CN2CCC(Oc3ccc(Cl)c(Cl)c3)CC2)c1` was 17 µL/min/mg.

For the next data set, the target named is T3, Histamine H1 receptor. Nature of the data set: Antagonist activity at histamine H1 receptor. Type of data set: functional.
Conditions: not given
Compound `O=C(Nc1ccccc1OCC(O)CN1CCC(Oc2ccc(Cl)c(Cl)c2)CC1)C1CCC1` (stereo not drawn) showed an IC50 of 5010 nM.

As a reminder, the inhibition is how much of the control response was suppressed. In general, Ki refers to the dissociation constant of the complex between target and ligand, obtained from inhibition or displacement. A word on the IC50: it is the point on the concentration scale where inhibition reaches its midpoint. A word on the hepatocyte CLint: it is the rate of metabolic loss divided by the concentration. As usually defined, the microsomal CLint is a measure of how fast metabolising enzymes remove a compound, apart from limits set by blood flow. A lower microsomal CLint goes with greater metabolic stability. For orientation: logD means lipophilicity at a set pH, counting ionised and neutral species. A low value points to a more hydrophilic compound.
